Results: patent US10940139B2, “Compounds that interact with the Ras superfamily for the treatment of cancers, inflammatory diseases, rasopathies, and fibrotic disease” (Shy Therapeutics LLC, priority 2017, dated 2021)
pIC50: −log10 of the molar value. Read-outs that look alike come from different tables or passages of the source.

Tests used:
Experiment in all cases: Ras GTP binding domain inhibition assay (labeled GTP)
[1] = biological target: KRas G12D/Q61H double mutant (Homo sapiens (Human), UniProt P01116, G12D/Q61H); conditions: for inhibition at 20 µM: 20 μM compound
KRas G12D/Q61H double mutant, sequence (P01116-2 other isoform, or with tags, fused parts or gaps G12D/Q61H): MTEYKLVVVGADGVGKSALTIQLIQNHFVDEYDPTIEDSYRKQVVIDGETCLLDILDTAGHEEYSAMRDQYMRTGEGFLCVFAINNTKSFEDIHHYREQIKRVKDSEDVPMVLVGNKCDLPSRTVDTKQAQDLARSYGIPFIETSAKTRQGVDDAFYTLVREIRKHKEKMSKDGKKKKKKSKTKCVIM
Summary of the method: (§1)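 Ni-plate capture of His-KRas (3-10 μg/ml, o/n, 4° C); Tris pH 7.5/MgCl2/DTT buffer, 1% DMSO. Cpd 20 μM or titration, 3 h RT. Cy3/Cy5-GTP 45 min RT, wash, fluorescence of bound GTP.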

[2] = biological target: KRas G12C/Q61H double mutant (Homo sapiens (Human), UniProt P01116, G12C/Q61H); conditions: 20 μM compound
KRas G12C/Q61H double mutant, sequence (P01116-2 other isoform, or with tags, fused parts or gaps G12C/Q61H): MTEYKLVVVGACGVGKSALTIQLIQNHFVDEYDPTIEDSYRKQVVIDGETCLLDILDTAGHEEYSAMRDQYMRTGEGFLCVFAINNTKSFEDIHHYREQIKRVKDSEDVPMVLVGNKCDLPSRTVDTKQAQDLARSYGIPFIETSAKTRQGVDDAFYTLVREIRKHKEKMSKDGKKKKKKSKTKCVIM
Summary of the method: as §1

[3] = biological target: KRas Q61H mutant (Homo sapiens (Human), UniProt P01116, Q61H); conditions: 20 μM compound
KRas Q61H mutant, sequence (P01116-2 other isoform, or with tags, fused parts or gaps Q61H): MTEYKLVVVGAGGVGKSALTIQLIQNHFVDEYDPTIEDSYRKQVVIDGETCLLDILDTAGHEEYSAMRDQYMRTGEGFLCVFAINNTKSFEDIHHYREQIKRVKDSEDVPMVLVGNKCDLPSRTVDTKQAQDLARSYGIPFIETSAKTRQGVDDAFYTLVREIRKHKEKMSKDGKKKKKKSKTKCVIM
Summary of the method: as §1

[4] = biological target: KRas G12C mutant (Homo sapiens (Human), UniProt P01116, G12C); conditions: 20 μM compound
KRas G12C mutant, sequence (P01116-2 other isoform, or with tags, fused parts or gaps G12C): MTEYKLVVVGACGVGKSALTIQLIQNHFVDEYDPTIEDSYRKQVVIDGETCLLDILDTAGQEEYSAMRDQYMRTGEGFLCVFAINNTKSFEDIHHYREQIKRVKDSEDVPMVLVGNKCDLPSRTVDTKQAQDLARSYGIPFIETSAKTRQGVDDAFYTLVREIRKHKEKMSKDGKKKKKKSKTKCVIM
Summary of the method: as §1

[5] = biological target: KRas wild type (Homo sapiens (Human), UniProt P01116); conditions: 20 μM compound
KRas wild type, sequence (P01116-2 other isoform, or with tags, fused parts or gaps): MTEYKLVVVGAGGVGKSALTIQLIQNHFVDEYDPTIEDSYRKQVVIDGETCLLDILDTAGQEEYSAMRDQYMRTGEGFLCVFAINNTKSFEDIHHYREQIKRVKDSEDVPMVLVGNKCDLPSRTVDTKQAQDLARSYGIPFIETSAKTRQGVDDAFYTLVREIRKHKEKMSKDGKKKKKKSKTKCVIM
Summary of the method: as §1

[6] = biological target: KRas G12D mutant protein (Homo sapiens (Human), UniProt P01116, G12D); conditions: 20 μM compound
KRas G12D mutant protein, sequence (P01116-2 other isoform, or with tags, fused parts or gaps G12D): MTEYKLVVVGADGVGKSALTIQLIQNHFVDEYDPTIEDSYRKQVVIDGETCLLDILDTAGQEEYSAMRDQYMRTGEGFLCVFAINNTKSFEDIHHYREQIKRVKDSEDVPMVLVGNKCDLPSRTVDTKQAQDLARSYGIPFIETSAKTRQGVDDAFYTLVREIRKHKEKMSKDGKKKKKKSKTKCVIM

[7] = read-out: % Inhibition at 20 μM KRas G12D Q61H
[8] = read-out: % Inhibition at 20 μM KRas G12C Q61H
[9] = read-out: % Inhibition at 20 μM KRas Q61H
[10] = read-out: % Inhibition at 20 μM KRas G12C
[11] = read-out: % Inhibition at 20 μM KRas wild type
[12] = read-out: % Inhibition at 20 μM KRas G12D
[13] = KRas G12D/Q61H double mutant, read-out: % Inhibition at 20 μM of K-Ras mutant and wild-type protein, KRas G12D Q61H
[14] = KRas G12C/Q61H double mutant, read-out: % Inhibition at 20 μM of K-Ras mutant and wild-type protein, KRas G12C Q61H
[15] = KRas Q61H, read-out: % Inhibition at 20 μM of K-Ras mutant and wild-type protein, KRas Q61H
[16] = KRas G12C, read-out: % Inhibition at 20 μM of K-Ras mutant and wild-type protein, KRas G12C
[17] = KRas wild type, read-out: % Inhibition at 20 μM of K-Ras mutant and wild-type protein, KRas wild type
[18] = KRas G12D, read-out: % Inhibition at 20 μM of K-Ras mutant and wild-type protein, KRas G12D

Structure (SMILES)	inhibition at 20 µM [1, 7] [%]	inhibition at 20 µM [2, 8] [%]	inhibition at 20 µM [3, 9] [%]	inhibition at 20 µM [4, 10] [%]	inhibition at 20 µM [5, 11] [%]	inhibition at 20 µM [6, 12] [%]	inhibition at 20 µM [1, 13] [%]	inhibition at 20 µM [2, 14] [%]	inhibition at 20 µM [3, 15] [%]	inhibition at 20 µM [4, 16] [%]	inhibition at 20 µM [5, 17] [%]	inhibition at 20 µM [6, 18] [%]	pIC50 ([1]; serial dilution, read-out: KRas G12D Q61H (classes E-H, IC50))
COc1cccc(-c2csc3c(O)nc(-c4ccccn4)nc23)c1 [drawing 2872]	25 to 50	1 to 25	1 to 25	25 to 50	51 to 75	76 to 100							
COc1nc(-c2ccccn2)nc2c(C3CCC3)csc12 [drawing 3480]							51 to 75	51 to 75	76 to 100	25 to 50	1 to 25	1 to 25	
Nc1nc(-c2ccccn2)nc2c(-c3ccccc3)csc12 [drawing 2859]	25 to 50	51 to 75	25 to 50	1 to 25	25 to 50	25 to 50							
CC(C)Oc1cnc(-c2ccccn2)nc1O [drawing 3481]							51 to 75	76 to 100	51 to 75	51 to 75	25 to 50	51 to 75	
COc1cnc(-c2cnc[nH]2)nc1O [drawing 3516]							51 to 75	51 to 75	51 to 75	51 to 75	51 to 75	51 to 75	
O=C(COCc1ccnc(O)c1)Nc1nc(-c2ccccn2)nc2sccc12 [drawing 2857]	51 to 75	51 to 75	51 to 75	25 to 50	25 to 50	25 to 50							
Cc1sc2c(O)nc(-c3ccccn3)nc2c1-c1ccccc1Cl [drawing 3515]							51 to 75	51 to 75	76 to 100	1 to 25	1 to 25	51 to 75	
CC(C)Cc1csc2c(O)nc(-c3ccccn3)nc12 [drawing 3494]							51 to 75	51 to 75	76 to 100	25 to 50	25 to 50	51 to 75	
Oc1nc(-c2ccccn2)nc2c(-c3cc(Cl)cc(Cl)c3)csc12 [drawing 2848]	25 to 50	1 to 25	25 to 50	25 to 50	1 to 25	25 to 50							
O=c1[nH]c(-c2ccccn2)nc2c([C@@H]3O[C@H](CO)[C@@H](O)[C@H]3O)csc12 [drawing 3527]							25 to 50	25 to 50	51 to 75	51 to 75	25 to 50	25 to 50	
Oc1nc(-c2ccccn2)nc2c(-c3ccc(OC(F)F)cc3F)csc12 [drawing 2876]	51 to 75	51 to 75	51 to 75	25 to 50	51 to 75	51 to 75							
COc1nc(-c2ccccn2)nc2c1c(-c1ccccc1)nn2-c1ccccn1 [drawing 3540]							51 to 75	25 to 50	51 to 75	51 to 75	25 to 50	51 to 75	
O=C(c1csc2c(O)nc(-c3ccccn3)nc12)N1CCOC(c2ccccc2Cl)C1 (stereo not shown) [drawing 2769]	51 to 75	76 to 100	76 to 100	25 to 50	51 to 75	25 to 50							5.00 to 5.30
COc1cnc(-c2nccn2C)nc1O [drawing 3513]							76 to 100	76 to 100	76 to 100	51 to 75	51 to 75	76 to 100	
Oc1nc(-c2ccccn2)nc2c(-c3ccsc3)csc12 [drawing 2875]	25 to 50	25 to 50	25 to 50	51 to 75	1 to 25	51 to 75							
Nc1nc(-c2ccccn2)nc2ccsc12 [drawing 2834]	25 to 50	25 to 50	51 to 75	25 to 50	1 to 25	1 to 25							
Cc1sc2c(O)nc(-c3ccccn3)nc2c1C(=O)N1CCN(Cc2cccc(O)c2)CC1 [drawing 3510]							51 to 75	51 to 75	51 to 75	1 to 25	1 to 25	25 to 50	
COCC(C)Nc1nc(-c2ccccn2)nc2sc(-c3ccncc3)c(-c3ccccc3)c12 (stereo not shown) [drawing 3541]							51 to 75	25 to 50	51 to 75	51 to 75	25 to 50	25 to 50	
O=C(COCc1cccnc1)Nc1nc(-c2ccccn2)nc2sccc12 [drawing 2829]	51 to 75	76 to 100	76 to 100	51 to 75	51 to 75	51 to 75							
Oc1nc(-c2ccccn2)nc2c(-c3cc(F)ccc3OC(F)F)csc12 [drawing 2860]	25 to 50	25 to 50	51 to 75	25 to 50	1 to 25	51 to 75							
CN(C)Cc1ccc(-c2csc3c(O)nc(-c4ccccn4)nc23)cc1F [drawing 2845]	76 to 100	76 to 100	76 to 100	25 to 50	51 to 75	76 to 100							
O=C(COCc1ccncc1)Nc1nc(-c2ccccn2)nc2sccc12 [drawing 2828]	51 to 75	51 to 75	51 to 75	51 to 75	25 to 50	51 to 75							
O=C(c1csc2c(O)nc(-c3ccccn3)nc12)N1CCNC(c2cn[nH]c2)C1 (stereo not shown) [drawing 2858]	51 to 75	51 to 75	76 to 100	25 to 50	25 to 50	25 to 50							
Oc1nc(-c2ccccn2)nc2c(C3CCC3)csc12 [drawing 3478]							51 to 75	51 to 75	51 to 75	25 to 50	25 to 50	51 to 75	
